Measurements as given in US20070254891A1, “Crystalline forms of 4-(2-fluorophenyl)-6-methyl-2-(piperazin-1-yl)thieno[2,3-d]pyrimidine” (Dynogen Pharmaceuticals, Inc., priority 2006, published 2007).

Assays:
Assay type in all cases: physicochemical
[1] = Aqueous solubility with pH measurement; conditions: water, 25° C., 24 hours; hydrochloride
Protocol: Each sample was suspended in 0.25 ml of solvent (water) in an amount effective to produce a maximum final concentration of greater than or equal to about 10 mg/ml of the parent free form of the compound (i.e., adding excess sample to account for the weight of the salt). […] The filtrate was then diluted down 101 times.

[2] = Gravimetric vapor sorption (GVS)
Protocol: GVS was used to determine the amount of water adsorbed by a sample. Briefly, samples were run on a Hiden IGASorp moisture sorption analyzer running CFRSorp software. Sample sizes were typically 10 mg. A moisture adsorption desorption isotherm was performed as outlined below in Table 3 (2 scans giving 1 complete cycle). Samples were loaded/unloaded at typical room humidity and temperature (40% RH, 25° C.). Samples were then analyzed by XRPD after GVS analysis, e.g., to determine whether any structural changes took place after adsorption of water. The standard isotherm was performed at 25° C. at 10% RH intervals over a 0-90% RH range.

[3] = Storage at 40° C./75% RH under ambient light (XRPD, HPLC purity, colour)
Protocol: (§1) Purity analysis was performed on an Agilent HP1100 system equipped with a diode array detector and using Chemstation V9 software. Gradient, Reverse Phase methods (duration approximately 40 minutes) were used in a HPLC1 system. A Thermo-Electron Corporation HyPurity C18 5 um 150×4.6 mm column was used at 25° C. Test samples were made-up of 0.2 mg/ml of the compound in acetonitrile:water (1:1 v/v). 10 μl of sample was injected into the column. The flow rate through the column was 1 ml/min and the detection wavelength, bandwidth was 254,8 nm. Phase A was 0.1% phosphoric acid in water and Phase B was 0.1% phosphoric acid in acetonitrile. The mobile phase timetable is shown below in Table 2.
Form I was characterized by pKa, LogP, LogPion and LogD determination and prediction, XRPD before and after storage at 40° C./75% RH for 4 weeks, PLM, DSC and TGA, ^1HNMR, solubility in water with pH measurement, HPLC purity before and after storage at 40° C./75% RH for 4 weeks, water content, GVS with XRPD and purity analysis after measurement, and VT-XRPD.
Form II has been characterized using XRPD before and after storage at 40° C./75% RH for 3 weeks, PLM, DSC and TGA, Solubility in water with pH measurement, HPLC purity, Water content, GVS with XRPD analysis after measurement, and VT-XRPD.

[4] = 10 week stability study at 40° C./75% RH and 60° C./75% RH, light and dark
Protocol: as §1
Samples of Form I and II were tested at 40° C./75% RH and 60° C./75% RH in both light and dark conditions for up to 10 weeks. As the samples were located in temperature/humidity control chambers, the exposure to light was limited to normal laboratory light conditions with artificial light and some winter daylight through the windows.
Approximately 100 mg of each sample was weighed into plastic weighing boats and spread out to form an even thin layer for each of the temperature/humidity/light conditions, as shown in Table 6. The dark samples were protected from exposure to light by wrapping them in aluminum foil. The foil was pierced to allow exposure to humidity.
Time points chosen for HPLC analysis during the stability study were T=0, 1, 2, 5 and 10 weeks. At 10 weeks, the samples were analyzed using XRPD, DSC and polarized light microscopy.

[5] = Variable temperature XRPD (VT-XRPD); conditions: 25° C. to 245° C., then cooled to 30° C.
Protocol: Samples run under ambient conditions were prepared as flat plate specimens using powder without grinding unless otherwise stated. Approximately 1-2 mg of the sample was lightly pressed on a glass slide to obtain a flat surface. Samples run under non-ambient conditions (VT-XRPD) were mounted on a silicon wafer with heat conducting compound. The sample was then heated to the appropriate temperature at about 20° C./minute and subsequently held isothermally for about 1 minute before data collection was initiated.
Three samples were studied using variable temperature XRPD (VT-XRPD): Form I as received, substantially pure Form I as prepared in Example 3, and substantially pure Form II as prepared in Example 3. VT-XRPD studies were initially carried out on substantially pure Form I as prepared in Example 3 with measurements at 25° C., 50° C., 80° C., 150° C., 220° C., 225° C., 250° C. and cooling to 29° C. Prior to measurement of the last XRPD pattern, the material was crushed due to the growth of large crystals. An overlay of the XRPD patterns can be found in FIG. 4A.
An experiment was also carried out on Form I as received, with measurements at 26° C., 50° C., 150° C., 200° C., 210° C., 220° C., 230° C. and cooling to 27° C. An overlay of the XRPD patterns can be found in FIG. 4B. […] (see peak at ˜14.7 2θ). […]

For `Cc1cc2c(-c3ccccc3F)nc(N3CCNCC3)nc2s1.Cl` [Form II, 4-(2-fluorophenyl)-6-methyl-2-(piperazin-1-yl)thieno[2,3-d]pyrimidine hydrochloride], the “Aqueous solubility (free base equivalent)” value [1] was 1600 µg/mL, the “pH of the solubility sample” value [1] was 6.39 and the “XRPD reanalysis after GVS” value ([2]; after one adsorption/desorption cycle) was “did not show any change”. The GVS weight increase ([2]; between 0 and 40% RH) was 1.4%, the “GVS weight increase, equivalent water” value ([2]; between 0 and 40% RH) was 0.29 moles of water and the “GVS weight increase, equivalent water” value ([2]; between 0 and 90% RH) was 0.39 moles of water. The “GVS total weight increase” value ([2]; between 0 and 90% RH, single cycle, 25° C., hydrochloride) was 1.9%, the “Colour of material surface after storage” value ([3]; 3 weeks at 40° C./75% RH, ambient light) was “had not changed color” and the XRPD after storage ([3]; 40° C./75% RH for 4 days, samples from acetone and acetonitrile) was “remained unchanged”. For the same compound, the “XRPD pattern after storage” value ([3]; 40° C./75% RH for three weeks) was “unchanged”, the “HPLC purity after storage” value ([3]; three weeks at 40° C./75% RH) was 100% and the Purity % ([4]; 40° C./75% RH, Dark, 1 week) was 99.9%. It also gave a Purity % ([4]; 40° C./75% RH, Dark, 2 weeks) of 100%, a Purity % ([4]; 40° C./75% RH, Dark, 5 weeks) of 100% and a Purity % ([4]; 40° C./75% RH, Dark, 10 weeks, hydrochloride) of 100%. For the same compound, the Purity % ([4]; 40° C./75% RH, Light, 1 week) was 99.9%, the Purity % ([4]; 40° C./75% RH, Light, 2 weeks) was 100% and the Purity % ([4]; 40° C./75% RH, Light, 5 weeks, hydrochloride) was 99.9%. The Purity % ([4]; 40° C./75% RH, Light, 10 weeks, hydrochloride) was 99.9%, the Purity % ([4]; 60° C./75% RH, Dark, 1 week) was 99.9% and the Purity % ([4]; 60° C./75% RH, Dark, 2 weeks, hydrochloride) was 100%. For the same compound, the Purity % ([4]; 60° C./75% RH, Dark, 5 weeks) was 100%, the Purity % ([4]; 60° C./75% RH, Dark, 10 weeks, hydrochloride) was 99.9% and the Purity % ([4]; 60° C./75% RH, Light, 1 week) was 99.8%. The Purity % ([4]; 60° C./75% RH, Light, 2 weeks, hydrochloride) was 99.9%, the Purity % ([4]; 60° C./75% RH, Light, 5 weeks, hydrochloride) was 99.8% and the Purity % ([4]; 60° C./75% RH, Light, 10 weeks, hydrochloride) was 99.7%. The Purity % ([4]; time point 0 weeks, hydrochloride) was 99.9%, the “Stability as indicated by the HPLC data” value ([4]; up to 10 weeks, 40° C./75% RH and 60° C./75% RH) was “stable to ambient light levels as well as elevated temperature and humidity” and the “Form on heating (VT-XRPD)” value [5] was “remained as Form II throughout the experiment”.
